Reference: patent US11028072B2, “2,4-diamino-6-ethylpyrimidine derivatives with antimalarial activities against Plasmodium falciparum” (National Science and Technology Development Agency, priority 2015, dated 2021)
Read-outs that look alike come from different tables or passages of the source.

Assays:
[1] = molecular target: T1, Human dihydrofolate reductase (hDHFR) (Homo sapiens, UniProt P00374); test: Inhibition of human dihydrofolate reductase (Ki); format: biochemical; conditions: human DHFR; hydrochloride salts
T1 sequence (P00374 1-187): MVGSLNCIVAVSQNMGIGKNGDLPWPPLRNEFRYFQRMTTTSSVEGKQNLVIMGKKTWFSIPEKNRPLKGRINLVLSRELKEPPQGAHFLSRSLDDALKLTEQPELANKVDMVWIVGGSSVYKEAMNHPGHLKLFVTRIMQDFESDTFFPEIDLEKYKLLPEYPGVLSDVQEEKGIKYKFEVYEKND

[2] = test system: P. falciparum TM4/8.2 (wild type); test: microbe, parasite or virus in culture; format: cell-based, Plasmodium falciparum; conditions: Plasmodium falciparum, read-out: IC50 P. falciparum TM4/8.2 (WT)
Source text: (§1) In Vitro Antimalarial Activites Against P. falciparum and Cytotoxicity Towards Mammalian Cells (Vero Cells)

[3] = test system: P. falciparum V1/S (N51I + C59R + S108 + I164L); test: microbe, parasite or virus in culture; format: cell-based, Plasmodium falciparum; conditions: Plasmodium falciparum, read-out: IC50 P. falciparum V1/S
Source text: as §1

[4] = in vitro; conditions: African green monkey
Source text: as §1

[5] = molecular target: quadruple mutant N51I + C59R + S108N + I164L (QM) pfDHFR (Plasmodium falciparum, UniProt P13922, I164L/N51I); test: Inhibition of quadruple mutant pfDHFR (Ki); format: biochemical
Procedure: (§2) The synthesized 2,4-diamino-6-ethylpyrimdine derivatives as the hydrochloride salts were tested for the activities against Plasmodium falciparum (P. falciparum) according to the standard methods. These include the inhibition of dihydrofolate reductase (DHFR) enzymes of P. falciparum including, wild type (WT) and quadruple mutants (N51IC59RS108NI164L) (QM). The inhibition was expressed as inhibition constants (Ki) in nano molar (nM).

[6] = molecular target: wild type (WT) pfDHFR (Plasmodium falciparum, UniProt P13922, N108S/R59C); test: Inhibition of wild type pfDHFR (Ki); format: biochemical
Procedure: as §2

[7] = in vitro, wild-type strain TM4/8.2
[8] = in vitro, quadruple mutant strain V1/S

Chain of quadruple mutant N51I + C59R + S108N + I164L (QM) pfDHFR (P13922 whole entry N51I/I164L): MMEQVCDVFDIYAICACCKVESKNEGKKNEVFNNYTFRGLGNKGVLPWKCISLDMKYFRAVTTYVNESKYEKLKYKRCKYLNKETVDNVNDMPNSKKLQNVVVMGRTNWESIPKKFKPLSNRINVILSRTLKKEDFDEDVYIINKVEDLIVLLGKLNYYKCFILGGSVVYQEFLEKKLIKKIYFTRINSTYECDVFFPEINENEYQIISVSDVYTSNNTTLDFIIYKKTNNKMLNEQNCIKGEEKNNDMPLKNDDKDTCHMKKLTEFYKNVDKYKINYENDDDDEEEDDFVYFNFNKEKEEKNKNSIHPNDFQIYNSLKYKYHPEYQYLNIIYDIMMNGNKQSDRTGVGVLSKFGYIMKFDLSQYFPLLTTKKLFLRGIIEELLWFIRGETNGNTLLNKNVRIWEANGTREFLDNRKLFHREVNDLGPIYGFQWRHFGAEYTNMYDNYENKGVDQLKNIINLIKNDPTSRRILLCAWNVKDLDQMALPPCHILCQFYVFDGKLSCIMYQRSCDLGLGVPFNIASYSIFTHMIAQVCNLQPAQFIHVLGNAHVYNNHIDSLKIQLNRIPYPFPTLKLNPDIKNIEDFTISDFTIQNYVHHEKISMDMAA
Chain of wild type (WT) pfDHFR (P13922 whole entry R59C/N108S): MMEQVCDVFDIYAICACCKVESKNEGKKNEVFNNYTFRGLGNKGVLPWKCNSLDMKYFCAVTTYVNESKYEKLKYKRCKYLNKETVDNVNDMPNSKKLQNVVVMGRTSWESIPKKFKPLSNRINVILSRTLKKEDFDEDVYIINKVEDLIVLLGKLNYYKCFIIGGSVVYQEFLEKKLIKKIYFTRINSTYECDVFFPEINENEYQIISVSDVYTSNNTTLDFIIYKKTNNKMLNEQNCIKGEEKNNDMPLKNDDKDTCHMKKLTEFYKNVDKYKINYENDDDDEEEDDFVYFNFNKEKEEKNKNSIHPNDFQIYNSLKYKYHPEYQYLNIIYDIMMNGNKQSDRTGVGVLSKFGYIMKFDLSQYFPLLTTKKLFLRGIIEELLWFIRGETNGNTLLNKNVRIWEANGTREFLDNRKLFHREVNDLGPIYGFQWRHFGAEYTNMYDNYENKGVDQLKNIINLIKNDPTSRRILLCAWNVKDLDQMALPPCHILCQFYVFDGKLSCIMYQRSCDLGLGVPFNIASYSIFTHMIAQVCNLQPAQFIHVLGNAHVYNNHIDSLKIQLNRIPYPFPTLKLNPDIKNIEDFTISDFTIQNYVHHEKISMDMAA

In the case of `CCc1nc(N)nc(N)c1OCc1cn(Cc2ccc(C(=O)O)cc2)nn1` [Compound 29], the “Ki hDHFR” value [1] is reported as “High”, the IC50 [2, 7] is reported as greater than 25000 nM and the IC50 [3, 8] is reported as greater than 25000 nM. The IC50 [4] was greater than 25000 nM, the Ki [5] was 477 ± 32.3 nM and the Ki [6] was 14.5 ± 1.62 nM.

For `CCc1nc(N)nc(N)c1OCCc1cn(Cc2ccc(O)cc2)nn1` [Compound 30], the “Ki hDHFR” value [1] was “High”, the IC50 [2, 7] was 12400 ± 4710 nM and the IC50 [3, 8] was greater than 50000 nM. The IC50 [4] was greater than 50000 nM, the Ki [5] was 756 ± 62.6 nM and the Ki [6] was 8.86 ± 0.8 nM.

`CCc1nc(N)nc(N)c1OCCCc1cn(Cc2ccc(C(=O)O)cc2)nn1` [Compound 32] showed a Ki [1] of 54.3 ± 1.05 nM, an IC50 [2, 7] of 87 ± 30 nM and an IC50 [3, 8] of 3750 ± 430 nM. The IC50 [4] was greater than 50000 nM, the Ki [5] was 4.72 ± 0.77 nM and the Ki [6] was 0.36 ± 0.02 nM.

For `CCc1nc(N)nc(N)c1OCc1cc(-c2ccccc2)no1` [Compound 33], the Ki [1] was 1480 ± 68.9 nM, the IC50 [2, 7] was 670 ± 130 nM and the IC50 [3, 8] was 15700 ± 4480 nM. The IC50 [4] was greater than 25000 nM, the Ki [5] was 38.1 ± 6.27 nM and the Ki [6] was 0.51 ± 0.08 nM.

For `CCc1nc(N)nc(N)c1OCc1cc(-c2ccc(F)cc2)no1` [Compound 34], the Ki [1] was 1080 ± 93.7 nM, the IC50 [2] was 1600 ± 790 nM and the IC50 [3] was 18900 ± 4440 nM. The IC50 [4] was greater than 25000 nM, the Ki [5] was 77.6 ± 14.8 nM and the Ki [6] was 1.01 ± 0.05 nM.

`CCc1nc(N)nc(N)c1OCc1cc(-c2ccc(Cl)cc2)no1` [Compound 35] showed a Ki [1] of 1170 ± 130 nM, an IC50 [2] of 2500 ± 340 nM and an IC50 [3] of 20900 ± 4080 nM. The IC50 [4] was greater than 25000 nM, the Ki [5] was 65 ± 11.9 nM and the Ki [6] was 0.95 ± 0.02 nM.

Work on `CCc1nc(N)nc(N)c1OCc1cc(-c2ccc(Br)cc2)no1` [Compound 36] yielded a Ki [1] of 1350 ± 104 nM, an IC50 [2, 7] of 2860 ± 560 nM and an IC50 [3, 8] of 17500 ± 2960 nM. For the same compound, the IC50 [4] was greater than 25000 nM, the Ki [5] was 64.6 ± 1.16 nM and the Ki [6] was 1.03 ± 0.2 nM.

With `CCc1nc(N)nc(N)c1OCc1cc(-c2cccc(C(F)(F)F)c2)no1` [Compound 37] the Ki [1] was greater than 100000 nM, the IC50 [2, 7] was 3260 ± 810 nM and the IC50 [3, 8] was 20200 ± 1370 nM. The IC50 [4] was 37100 ± 1810 nM, the Ki [5] was 106 ± 17.3 nM and the Ki [6] was 2.12 ± 0.18 nM.

Work on `CCc1nc(N)nc(N)c1OCc1cc(-c2cccc(OC)c2)no1` [Compound 38] yielded a Ki [1] of 1080 ± 31 nM, an IC50 [2, 7] of 570 ± 190 nM and an IC50 [3, 8] greater than 25000 nM. It also gave an IC50 [4] greater than 25000 nM, a Ki [5] of 22.8 ± 3.09 nM and a Ki [6] of 0.55 ± 0.1 nM.

Compound `CCc1nc(N)nc(N)c1OCc1cc(-c2cccc([N+](=O)[O-])c2)no1` [Compound 39] has a Ki [1] greater than 100000 nM, an IC50 [2, 7] of 1160 ± 550 nM and an IC50 [3, 8] of 9080 ± 1050 nM. The IC50 [4] was greater than 50000 nM, the Ki [5] was 49 ± 6.73 nM and the Ki [6] was 1.33 ± 0.17 nM.

For `CCc1nc(N)nc(N)c1OCc1cc(-c2cccc(C(=O)O)c2)no1` [Compound 40], the Ki [1] was 279 ± 24.7 nM, the IC50 [2, 7] was 280 ± 130 nM and the IC50 [3, 8] was 3380 ± 1060 nM. The IC50 [4] was greater than 50000 nM, the Ki [5] was 2.12 ± 0.17 nM and the Ki [6] was 1.28 ± 0.13 nM.

`CCc1nc(N)nc(N)c1OCc1cc(-c2ccc(OC)cc2)no1` [Compound 42] gave a Ki [1] of 1660 ± 76.7 nM, an IC50 [2, 7] of 1190 ± 360 nM and an IC50 [3, 8] greater than 25000 nM. It also gave an IC50 [4] greater than 25000 nM, a Ki [5] of 64.4 ± 7.59 nM and a Ki [6] of 1.15 ± 0.18 nM.

`CCc1nc(N)nc(N)c1OCc1cc(-c2ccc([N+](=O)[O-])cc2)no1` [Compound 43] showed a Ki [1] greater than 100000 nM, an IC50 [2, 7] of 33200 ± 14200 nM and an IC50 [3, 8] greater than 50000 nM. It also gave an IC50 [4] greater than 50000 nM, a Ki [5] of 306 ± 36.5 nM and a Ki [6] of 4.02 ± 0.57 nM.

`CCc1nc(N)nc(N)c1OCc1cc(-c2ccc(C(=O)O)cc2)no1` [Compound 44] gave a Ki [1] greater than 100000 nM, an IC50 [2, 7] of 7770 ± 1470 nM and an IC50 [3, 8] greater than 10000 nM. For the same compound, the IC50 [4] was greater than 10000 nM, the Ki [5] was 245 ± 34.6 nM and the Ki [6] was 3.75 ± 0.31 nM.

In the case of `CCc1nc(N)nc(N)c1OCCCc1cc(-c2ccc(Cl)cc2)no1` [Compound 45], the Ki [1] is reported as 37 ± 5.36 nM, the IC50 [2, 7] is reported as 270 ± 80 nM and the IC50 [3, 8] is reported as 6370 ± 1970 nM. It also gave an IC50 [4] greater than 50000 nM, a Ki [5] of 3.9 ± 0.68 nM and a Ki [6] of 1.99 ± 0.43 nM.

For `CCc1nc(N)nc(N)c1OCCCc1cc(-c2cccc(C(F)(F)F)c2)no1` [Compound 46], the Ki [1] was 26.12 ± 0.24 nM, the IC50 [2] was 130 ± 40 nM and the IC50 [3] was 17700 ± 4740 nM. The IC50 [4] was 10500 nM, the Ki [5] was 1.74 ± 0.14 nM and the Ki [6] was 0.39 ± 0.03 nM.

`CCc1nc(N)nc(N)c1OCCCc1cc(-c2cccc(C#N)c2)no1` [Compound 47] showed a Ki [1] of 21.4 ± 0.91 nM, an IC50 [2] of 40 ± 7 nM and an IC50 [3] of 5510 ± 470 nM. For the same compound, the IC50 [4] was 560 nM, the Ki [5] was 1.02 ± 0.07 nM and the Ki [6] was 0.27 ± 0.03 nM.

For `CCc1nc(N)nc(N)c1OCCCc1cc(-c2cccc(C(=O)OC)c2)no1` [Compound 48], the Ki [1] was 25.2 ± 8.9 nM, the IC50 [2, 7] was 45 ± 1.5 nM and the IC50 [3, 8] was 100 ± 30 nM. The IC50 [4] was 760 nM, the Ki [5] was 0.87 ± 0.15 nM and the Ki [6] was 0.26 ± 0.07 nM.

For `CCc1nc(N)nc(N)c1OCc1coc(-c2ccccc2)n1` [Compound 50], the Ki [1] was 292 ± 22.2 nM, the IC50 [2, 7] was 2250 ± 710 nM and the IC50 [3, 8] was 13700 ± 4080 nM. It also gave an IC50 [4] greater than 50000 nM, a Ki [5] of 55.6 ± 8.79 nM and a Ki [6] of 1.33 ± 0.07 nM.
